From patent US20260256792A1, “TREATMENT OF CHRONIC SPONTANEOUS URTICARIA BY ADMINISTERING (R)-2-[3-[4-AMINO-3-(2-FLUORO-4-PHENOXY-PHENYL)PYRAZOLO[3,4-D]PYRIMIDIN-1-YL]PIPERIDINE-1-CARBONYL]-4-METHYL-4-[4-(OXETAN-3-YL)PIPERAZIN-1-YL]PENT-2-ENENITRILE” (priority 2023, published 2026)

System: moderate-to-severe chronic spontaneous urticaria (CSU)
Assay: Phase 2 CSU study: urticaria activity score over 7 days (UAS7)
Type: in vivo, human
Settings: for Responder n (%), UAS7 ≤6 / Imputed non-responder n (%), UAS7 = 0 / Imputed non-responder n (%), UAS7 ≤6 / Non-responder n (%), UAS7 = 0 / Non-responder n (%), UAS7 ≤6 / OR for rilzabrutinib vs. placebo, UAS7 = 0 / RRD (%) for rilzabrutinib vs. placebo, UAS7 = 0 / RRD (%) for rilzabrutinib vs. placebo, UAS7 ≤6 / Responder n (%), UAS7 = 0 / OR for rilzabrutinib vs. placebo, UAS7 ≤6: ITT; for UAS7 Post-baseline Mean (SD): Omalizumab-Naïve Population with Outlier Removed
Description: The study comprises a 12 week, randomized, double-blind, placebo-controlled, multi-center, dose-ranging efficacy and safety phase, followed by a 40 week open label extension (OLE) phase (see FIG. 1). The study consists of three phases and an optional OLE phase. […] Clinically, CSU is characterized by the spontaneous and recurrent appearance of pruritic hives. The proposed primary endpoints were the UAS7 at Week 12 in EU and EU reference countries and the ISS7 in the US. Regardless of where a participant was from, all assessments were the same. The UAS7 score is a composite score containing both the HSS7 and the ISS7. This allowed a global assessment of the two key components of urticaria: hives and itch. […] The UAS is a validated PRO measure. […] The daily UAS scores range from 0 to 6 point/day. […] Patients were to complete the UAS using the e-diary. […] The following secondary endpoints were to be analyzed using the same approach as for the primary endpoint: • Change from baseline in UAS7 at Week 4 • Change from baseline in UAS7 at Week 12 (for US and US reference countries) • Change from baseline in ISS7 at Week 12 (except US and US reference countries) • Change from baseline in HSS7 at Week 12 The following responder secondary endpoints were to be analyzed using the Cochran-Mantel-Haenszel test adjusted by region: • Proportion of participants with UAS7<6 at Week 12 • Proportion of participants with UAS7=0 at Week 12 Participants who received selected prohibited medications and/or rescue medications were to be considered as non-responders for time points after the medication usage. For other participants, all available data including those collected during the off-treatment period were to be used to determine the responder/non-responder status. Missing data were to be considered as non-responders.

## CC(C)(C=C(C#N)C(=O)N1CCC[C@@H](n2nc(-c3ccc(Oc4ccccc4)cc3F)c3c(N)ncnc32)C1)N1CCN(C2COC2)CC1 [rilzabrutinib, (R)-2-[3-[4-amino-3-(2-fluoro-4-phenoxy-phenyl)pyrazolo[3,4-d]pyrimidin-1-yl]piperidine-1-carbonyl]-4-methyl-4-[4-(oxetan-3-yl)piperazin-1-yl]pent-2-enenitrile]
400 mg QPM, Week 12
  Responder n (%), UAS7 ≤6: 2 (5.3) n (%)
400 mg TID, Week 1
  Imputed non-responder n (%), UAS7 = 0: 0 n (%)
  Imputed non-responder n (%), UAS7 ≤6: 0 n (%)
  Non-responder n (%), UAS7 = 0: 40 (97.6) n (%)
  Non-responder n (%), UAS7 ≤6: 31 (75.6) n (%)
  OR for rilzabrutinib vs. placebo, UAS7 = 0: 1.084
  RRD (%) for rilzabrutinib vs. placebo, UAS7 = 0: 0.2 %
  RRD (%) for rilzabrutinib vs. placebo, UAS7 ≤6: 17.6 %
  Responder n (%), UAS7 = 0: 1 (2.4) n (%)
  Responder n (%), UAS7 ≤6: 10 (24.4) n (%)
400 mg TID, Week 2
  Imputed non-responder n (%), UAS7 = 0: 0 n (%)
  Imputed non-responder n (%), UAS7 ≤6: 0 n (%)
  Non-responder n (%), UAS7 = 0: 35 (85.4) n (%)
  Non-responder n (%), UAS7 ≤6: 30 (73.2) n (%)
  OR for rilzabrutinib vs. placebo, UAS7 = 0: 6.522
  OR for rilzabrutinib vs. placebo, UAS7 ≤6: 6.049
  RRD (%) for rilzabrutinib vs. placebo, UAS7 = 0: 11.0 %
  RRD (%) for rilzabrutinib vs. placebo, UAS7 ≤6: 19.4 %
  Responder n (%), UAS7 = 0: 6 (14.6) n (%)
  Responder n (%), UAS7 ≤6: 11 (26.8) n (%)
400 mg TID, Week 3
  Imputed non-responder n (%), UAS7 = 0: 0 n (%)
  Imputed non-responder n (%), UAS7 ≤6: 0 n (%)
  Non-responder n (%), UAS7 = 0: 37 (90.2) n (%)
  Non-responder n (%), UAS7 ≤6: 30 (73.2) n (%)
  OR for rilzabrutinib vs. placebo, UAS7 = 0: 4.480
  OR for rilzabrutinib vs. placebo, UAS7 ≤6: 3.055
  RRD (%) for rilzabrutinib vs. placebo, UAS7 = 0: 6.9 %
  RRD (%) for rilzabrutinib vs. placebo, UAS7 ≤6: 14.9 %
  Responder n (%), UAS7 = 0: 4 (9.8) n (%)
  Responder n (%), UAS7 ≤6: 11 (26.8) n (%)
400 mg TID, Week 4
  Imputed non-responder n (%), UAS7 = 0: 3 (7.3) n (%)
  Imputed non-responder n (%), UAS7 ≤6: 3 (7.3) n (%)
  Non-responder n (%), UAS7 = 0: 37 (90.2) n (%)
  Non-responder n (%), UAS7 ≤6: 34 (82.9) n (%)
  OR for rilzabrutinib vs. placebo, UAS7 = 0: 1.867
  OR for rilzabrutinib vs. placebo, UAS7 ≤6: 1.217
  RRD (%) for rilzabrutinib vs. placebo, UAS7 = 0: 4.0 %
  RRD (%) for rilzabrutinib vs. placebo, UAS7 ≤6: 2.4 %
  Responder n (%), UAS7 = 0: 4 (9.8) n (%)
  Responder n (%), UAS7 ≤6: 7 (17.1) n (%)
400 mg TID, Week 5
  Imputed non-responder n (%), UAS7 = 0: 3 (7.3) n (%)
  Imputed non-responder n (%), UAS7 ≤6: 3 (7.3) n (%)
  Non-responder n (%), UAS7 = 0: 34 (82.9) n (%)
  Non-responder n (%), UAS7 ≤6: 27 (65.9) n (%)
  OR for rilzabrutinib vs. placebo, UAS7 = 0: 7.606
  OR for rilzabrutinib vs. placebo, UAS7 ≤6: 8.858
  RRD (%) for rilzabrutinib vs. placebo, UAS7 = 0: 13.2 %
  RRD (%) for rilzabrutinib vs. placebo, UAS7 ≤6: 26.0 %
  Responder n (%), UAS7 = 0: 7 (17.1) n (%)
  Responder n (%), UAS7 ≤6: 14 (34.1) n (%)
400 mg TID, Week 6
  Imputed non-responder n (%), UAS7 = 0: 5 (12.2) n (%)
  Imputed non-responder n (%), UAS7 ≤6: 5 (12.2) n (%)
  Non-responder n (%), UAS7 = 0: 32 (78.0) n (%)
  Non-responder n (%), UAS7 ≤6: 28 (68.3) n (%)
  OR for rilzabrutinib vs. placebo, UAS7 = 0: 9.649
  OR for rilzabrutinib vs. placebo, UAS7 ≤6: 2.273
  RRD (%) for rilzabrutinib vs. placebo, UAS7 = 0: 17.2 %
  RRD (%) for rilzabrutinib vs. placebo, UAS7 ≤6: 14.2 %
  Responder n (%), UAS7 = 0: 9 (22.0) n (%)
  Responder n (%), UAS7 ≤6: 13 (31.7) n (%)
400 mg TID, Week 7
  Imputed non-responder n (%), UAS7 = 0: 6 (14.6) n (%)
  Imputed non-responder n (%), UAS7 ≤6: 6 (14.6) n (%)
  Non-responder n (%), UAS7 = 0: 37 (90.2) n (%)
  Non-responder n (%), UAS7 ≤6: 30 (73.2) n (%)
  OR for rilzabrutinib vs. placebo, UAS7 = 0: 4.480
  OR for rilzabrutinib vs. placebo, UAS7 ≤6: 3.247
  RRD (%) for rilzabrutinib vs. placebo, UAS7 = 0: 6.9 %
  RRD (%) for rilzabrutinib vs. placebo, UAS7 ≤6: 16.1 %
  Responder n (%), UAS7 = 0: 4 (9.8) n (%)
  Responder n (%), UAS7 ≤6: 11 (26.8) n (%)
400 mg TID, Week 8
  Imputed non-responder n (%), UAS7 = 0: 8 (19.5) n (%)
  Imputed non-responder n (%), UAS7 ≤6: 8 (19.5) n (%)
  Non-responder n (%), UAS7 = 0: 37 (90.2) n (%)
  Non-responder n (%), UAS7 ≤6: 28 (68.3) n (%)
  OR for rilzabrutinib vs. placebo, UAS7 = 0: 1.697
  OR for rilzabrutinib vs. placebo, UAS7 ≤6: 2.257
  RRD (%) for rilzabrutinib vs. placebo, UAS7 = 0: 3.2 %
  RRD (%) for rilzabrutinib vs. placebo, UAS7 ≤6: 12.7 %
  Responder n (%), UAS7 = 0: 4 (9.8) n (%)
  Responder n (%), UAS7 ≤6: 13 (31.7) n (%)
400 mg TID, Week 9
  Imputed non-responder n (%), UAS7 = 0: 7 (17.1) n (%)
  Imputed non-responder n (%), UAS7 ≤6: 7 (17.1) n (%)
  Non-responder n (%), UAS7 = 0: 37 (90.2) n (%)
  Non-responder n (%), UAS7 ≤6: 26 (63.4) n (%)
  OR for rilzabrutinib vs. placebo, UAS7 = 0: 1.117
  OR for rilzabrutinib vs. placebo, UAS7 ≤6: 4.680
  RRD (%) for rilzabrutinib vs. placebo, UAS7 = 0: 0.8 %
  RRD (%) for rilzabrutinib vs. placebo, UAS7 ≤6: 22.0 %
  Responder n (%), UAS7 = 0: 4 (9.8) n (%)
  Responder n (%), UAS7 ≤6: 15 (36.6) n (%)
400 mg TID, Week 10
  Imputed non-responder n (%), UAS7 = 0: 7 (17.1) n (%)
  Imputed non-responder n (%), UAS7 ≤6: 7 (17.1) n (%)
  Non-responder n (%), UAS7 = 0: 35 (85.4) n (%)
  Non-responder n (%), UAS7 ≤6: 27 (65.9) n (%)
  OR for rilzabrutinib vs. placebo, UAS7 = 0: 1.210
  OR for rilzabrutinib vs. placebo, UAS7 ≤6: 2.074
  RRD (%) for rilzabrutinib vs. placebo, UAS7 ≤6: 12.9 %
  Responder n (%), UAS7 = 0: 6 (14.6) n (%)
  Responder n (%), UAS7 ≤6: 14 (34.1) n (%)
400 mg TID, Week 11
  Imputed non-responder n (%), UAS7 = 0: 6 (14.6) n (%)
  Imputed non-responder n (%), UAS7 ≤6: 6 (14.6) n (%)
  Non-responder n (%), UAS7 = 0: 34 (82.9) n (%)
  Non-responder n (%), UAS7 ≤6: 26 (63.4) n (%)
  OR for rilzabrutinib vs. placebo, UAS7 = 0: 3.449
  OR for rilzabrutinib vs. placebo, UAS7 ≤6: 2.322
  RRD (%) for rilzabrutinib vs. placebo, UAS7 = 0: 10.4 %
  RRD (%) for rilzabrutinib vs. placebo, UAS7 ≤6: 15.0 %
  Responder n (%), UAS7 = 0: 7 (17.1) n (%)
  Responder n (%), UAS7 ≤6: 15 (36.6) n (%)
400 mg TID, Week 12
  Imputed non-responder n (%), UAS7 = 0: 11 (26.8) n (%)
  Imputed non-responder n (%), UAS7 ≤6: 11 (26.8) n (%)
  Non-responder n (%), UAS7 = 0: 31 (75.6) n (%)
  Non-responder n (%), UAS7 ≤6: 26 (63.4) n (%)
  OR for rilzabrutinib vs. placebo, UAS7 = 0: 1.995
  OR for rilzabrutinib vs. placebo, UAS7 ≤6: 3.721
  RRD (%) for rilzabrutinib vs. placebo, UAS7 = 0: 9.4 %
  RRD (%) for rilzabrutinib vs. placebo, UAS7 ≤6: 20.9 %
  Responder n (%), UAS7 = 0: 10 (24.4) n (%)
  Responder n (%), UAS7 ≤6: 15 (36.6) n (%)
400 mg BID, Week 1
  UAS7 Post-baseline Mean (SD): 19.77 (11.32)
400 mg BID, Week 2
  UAS7 Post-baseline Mean (SD): 19.59 (10.86)
400 mg BID, Week 3
  UAS7 Post-baseline Mean (SD): 17.71 (11.91)
400 mg BID, Week 4
  UAS7 Post-baseline Mean (SD): 15.92 (11.71)
400 mg BID, Week 5
  UAS7 Post-baseline Mean (SD): 17.22 (13.36)
400 mg BID, Week 6
  UAS7 Post-baseline Mean (SD): 17.02 (12.76)
400 mg BID, Week 7
  UAS7 Post-baseline Mean (SD): 15.55 (11.97)
400 mg BID, Week 8
  UAS7 Post-baseline Mean (SD): 13.98 (13.06)
400 mg BID, Week 9
  UAS7 Post-baseline Mean (SD): 14.64 (14.43)
400 mg BID, Week 10
  UAS7 Post-baseline Mean (SD): 15.22 (14.36)
400 mg BID, Week 11
  UAS7 Post-baseline Mean (SD): 15.06 (13.80)
400 mg BID, Week 12
  UAS7 Post-baseline Mean (SD): 15.61 (13.91)
400 mg QPM, Week 1
  UAS7 Post-baseline Mean (SD): 23.81 (8.78)
